Reference: patent US20260256792A1, “TREATMENT OF CHRONIC SPONTANEOUS URTICARIA BY ADMINISTERING (R)-2-[3-[4-AMINO-3-(2-FLUORO-4-PHENOXY-PHENYL)PYRAZOLO[3,4-D]PYRIMIDIN-1-YL]PIPERIDINE-1-CARBONYL]-4-METHYL-4-[4-(OXETAN-3-YL)PIPERAZIN-1-YL]PENT-2-ENENITRILE” (priority 2023, published 2026)

Test system: moderate-to-severe chronic spontaneous urticaria (CSU)
Experiment: Phase 2 CSU study: urticaria activity score over 7 days (UAS7)
Assay type: in vivo, human
Design: key to UAS7 Median / UAS7 Change from baseline Median / UAS7 change from baseline, Q1 / UAS7 change from baseline, Q3 / UAS7 change from baseline, Max / UAS7 Change from baseline LS Mean (SE): UAS7 points; daily UAS score ranges 0–6 points/day, over 7 days
Excerpt: The study comprises a 12 week, randomized, double-blind, placebo-controlled, multi-center, dose-ranging efficacy and safety phase, followed by a 40 week open label extension (OLE) phase (see FIG. 1). The study consists of three phases and an optional OLE phase. […] Clinically, CSU is characterized by the spontaneous and recurrent appearance of pruritic hives. The proposed primary endpoints were the UAS7 at Week 12 in EU and EU reference countries and the ISS7 in the US. Regardless of where a participant was from, all assessments were the same. The UAS7 score is a composite score containing both the HSS7 and the ISS7. This allowed a global assessment of the two key components of urticaria: hives and itch. […] The UAS is a validated PRO measure. […] The daily UAS scores range from 0 to 6 point/day. […] Patients were to complete the UAS using the e-diary. […] The following secondary endpoints were to be analyzed using the same approach as for the primary endpoint: • Change from baseline in UAS7 at Week 4 • Change from baseline in UAS7 at Week 12 (for US and US reference countries) • Change from baseline in ISS7 at Week 12 (except US and US reference countries) • Change from baseline in HSS7 at Week 12 The following responder secondary endpoints were to be analyzed using the Cochran-Mantel-Haenszel test adjusted by region: • Proportion of participants with UAS7<6 at Week 12 • Proportion of participants with UAS7=0 at Week 12 Participants who received selected prohibited medications and/or rescue medications were to be considered as non-responders for time points after the medication usage. For other participants, all available data including those collected during the off-treatment period were to be used to determine the responder/non-responder status. Missing data were to be considered as non-responders.

[1] = Week 6, 400 mg BID, ITT population
[2] = Week 6, 400 mg BID, Omalizumab-Naïve
[3] = Week 6, 400 mg BID, Prior Omalizumab Use
[4] = Week 6, 400 mg BID, omalizumab-naive participants
[5] = Week 6, 400 mg QPM, ITT population
[6] = Week 6, 400 mg QPM, Omalizumab-Naïve
[7] = Week 6, 400 mg QPM, Prior Omalizumab Use
[8] = Week 6, 400 mg QPM, omalizumab-naive participants
[9] = Week 6, 400 mg TID, ITT population
[10] = Week 6, 400 mg TID, Omalizumab-Naïve
[11] = Week 6, 400 mg TID, Prior Omalizumab Use
[12] = Week 6, 400 mg TID, omalizumab-naive participants
[13] = Week 7, 400 mg BID, ITT population
[14] = Week 7, 400 mg BID, Omalizumab-Naïve
[15] = Week 7, 400 mg BID, Prior Omalizumab Use
[16] = Week 7, 400 mg BID, omalizumab-naive participants
[17] = Week 7, 400 mg QPM, ITT population
[18] = Week 7, 400 mg QPM, Omalizumab-Naïve
[19] = Week 7, 400 mg QPM, Prior Omalizumab Use
[20] = Week 7, 400 mg QPM, omalizumab-naive participants
[21] = Week 7, 400 mg TID, ITT population
[22] = Week 7, 400 mg TID, Omalizumab-Naïve
[23] = Week 7, 400 mg TID, Prior Omalizumab Use
[24] = Week 7, 400 mg TID, omalizumab-naive participants
[25] = Week 8, 400 mg BID, ITT population
[26] = Week 8, 400 mg BID, Omalizumab-Naïve
[27] = Week 8, 400 mg BID, Prior Omalizumab Use
[28] = Week 8, 400 mg BID, omalizumab-naive participants

## CC(C)(C=C(C#N)C(=O)N1CCC[C@@H](n2nc(-c3ccc(Oc4ccccc4)cc3F)c3c(N)ncnc32)C1)N1CCN(C2COC2)CC1 [rilzabrutinib, (R)-2-[3-[4-amino-3-(2-fluoro-4-phenoxy-phenyl)pyrazolo[3,4-d]pyrimidin-1-yl]piperidine-1-carbonyl]-4-methyl-4-[4-(oxetan-3-yl)piperazin-1-yl]pent-2-enenitrile]
[1]
  OR for rilzabrutinib vs. placebo, UAS7 reduction of 10 points or more: 1.222
  RRD (%) for rilzabrutinib vs. placebo, UAS7 reduction of 10 points or more: 4.9 %
  Responder, UAS7 reduction from baseline of 10 points or more: 21 (51.2) n (%)
[2]
  UAS7 Change from baseline Mean (SD): −12.76 (11.42)
  UAS7 Mean (SD): 17.02 (12.76)
  UAS7 Median: 16.50
  UAS7 Percent change from baseline Mean (SD): −43.89 (39.18) %
  UAS7 Percent change from baseline Median: −38.06%
[3]
  UAS7 Change from baseline Mean (SD): −18.97 (18.81)
  UAS7 Change from baseline Median: −26.00
  UAS7 Mean (SD): 13.03 (15.45)
  UAS7 Median: 5.83
  UAS7 Percent change from baseline Mean (SD): −54.26 (54.98) %
  UAS7 Percent change from baseline Median: −86.11%
[4]
  Non-responder, UAS7 reduction from baseline of 10 points or more: 17 (48.6) n (%)
  OR for rilzabrutinib vs. placebo, UAS7 reduction of 10 points or more: 1.486
  RRD (%) for rilzabrutinib vs. placebo, UAS7 reduction of 10 points or more: 9.8 %
  Responder, UAS7 reduction from baseline of 10 points or more: 18 (51.4) n (%)
[5]
  Non-responder, UAS7 reduction from baseline of 10 points or more: 22 (57.9) n (%)
  OR for rilzabrutinib vs. placebo, UAS7 reduction of 10 points or more: 0.959
  RRD (%) for rilzabrutinib vs. placebo, UAS7 reduction of 10 points or more: −1.0 %
  Responder, UAS7 reduction from baseline of 10 points or more: 16 (42.1) n (%)
[6]
  UAS7 Change from baseline Mean (SD): −11.79 (10.56)
  UAS7 Change from baseline Median: −9.00
  UAS7 Mean (SD): 20.21 (10.42)
  UAS7 Median: 18.25
  UAS7 Percent change from baseline Mean (SD): −35.97 (30.17) %
  UAS7 Percent change from baseline Median: −37.30%
[7]
  UAS7 Change from baseline Mean (SD): −24.00 (NC)
  UAS7 Change from baseline Median: −24.00
  UAS7 Mean (SD): 17.00 (NC)
  UAS7 Median: 17.00
  UAS7 Percent change from baseline Mean (SD): −58.54 (NC) %
  UAS7 Percent change from baseline Median: −58.54%
[8]
  Non-responder, UAS7 reduction from baseline of 10 points or more: 22 (59.5) n (%)
  OR for rilzabrutinib vs. placebo, UAS7 reduction of 10 points or more: 0.981
  RRD (%) for rilzabrutinib vs. placebo, UAS7 reduction of 10 points or more: −0.5 %
  Responder, UAS7 reduction from baseline of 10 points or more: 15 (40.5) n (%)
[9]
  Non-responder, UAS7 reduction from baseline of 10 points or more: 16 (39.0) n (%)
  OR for rilzabrutinib vs. placebo, UAS7 reduction of 10 points or more: 1.787
  RRD (%) for rilzabrutinib vs. placebo, UAS7 reduction of 10 points or more: 14.2 %
  Responder, UAS7 reduction from baseline of 10 points or more: 25 (61.0) n (%)
[10]
  UAS7 Change from baseline Mean (SD): −15.94 (12.03)
  UAS7 Change from baseline Median: −15.00
  UAS7 Mean (SD): 14.10 (11.23)
  UAS7 Median: 14.00
  UAS7 Percent change from baseline Mean (SD): −52.07 (35.76) %
  UAS7 Percent change from baseline Median: −47.83%
[11]
  UAS7 Change from baseline Mean (SD): −26.03 (14.05)
  UAS7 Change from baseline Median: −26.58
  UAS7 Median: 3.00
  UAS7 Percent change from baseline Mean (SD): −78.40 (28.08) %
  UAS7 Percent change from baseline Median: −89.66%
[12]
  Non-responder, UAS7 reduction from baseline of 10 points or more: 15 (42.9) n (%)
  OR for rilzabrutinib vs. placebo, UAS7 reduction of 10 points or more: 1.770
  RRD (%) for rilzabrutinib vs. placebo, UAS7 reduction of 10 points or more: 14.6 %
  Responder, UAS7 reduction from baseline of 10 points or more: 20 (57.1) n (%)
[13]
  Non-responder, UAS7 reduction from baseline of 10 points or more: 18 (43.9) n (%)
  OR for rilzabrutinib vs. placebo, UAS7 reduction of 10 points or more: 1.899
  RRD (%) for rilzabrutinib vs. placebo, UAS7 reduction of 10 points or more: 15.6 %
  Responder, UAS7 reduction from baseline of 10 points or more: 23 (56.1) n (%)
[14]
  UAS7 Change from baseline Mean (SD): −14.03 (11.20)
  UAS7 Change from baseline Median: −12.75
  UAS7 Mean (SD): 15.55 (11.97)
  UAS7 Median: 14.88
  UAS7 Percent change from baseline Mean (SD): −48.14 (36.14) %
  UAS7 Percent change from baseline Median: −48.28%
[15]
  UAS7 Change from baseline Mean (SD): −20.40 (19.58)
  UAS7 Change from baseline Median: −25.00
  UAS7 Mean (SD): 11.60 (15.79)
  UAS7 Median: 2.00
  UAS7 Percent change from baseline Mean (SD): −58.52 (53.51) %
  UAS7 Percent change from baseline Median: −92.59%
[16]
  Non-responder, UAS7 reduction from baseline of 10 points or more: 15 (42.9) n (%)
  OR for rilzabrutinib vs. placebo, UAS7 reduction of 10 points or more: 2.154
  RRD (%) for rilzabrutinib vs. placebo, UAS7 reduction of 10 points or more: 18.5 %
  Responder, UAS7 reduction from baseline of 10 points or more: 20 (57.1) n (%)
[17]
  Non-responder, UAS7 reduction from baseline of 10 points or more: 22 (57.9) n (%)
  OR for rilzabrutinib vs. placebo, UAS7 reduction of 10 points or more: 1.159
  RRD (%) for rilzabrutinib vs. placebo, UAS7 reduction of 10 points or more: 3.5 %
  Responder, UAS7 reduction from baseline of 10 points or more: 16 (42.1) n (%)
[18]
  UAS7 Change from baseline Mean (SD): −10.92 (10.06)
  UAS7 Change from baseline Median: −9.00
  UAS7 Mean (SD): 21.11 (10.03)
  UAS7 Median: 18.20
  UAS7 Percent change from baseline Mean (SD): −33.33 (28.49) %
  UAS7 Percent change from baseline Median: −36.11%
[19]
  UAS7 Change from baseline Mean (SD): −24.00 (NC)
  UAS7 Change from baseline Median: −24.00
  UAS7 Mean (SD): 17.00 (NC)
  UAS7 Median: 17.00
  UAS7 Percent change from baseline Mean (SD): −58.54 (NC) %
  UAS7 Percent change from baseline Median: −58.54%
[20]
  Non-responder, UAS7 reduction from baseline of 10 points or more: 22 (59.5) n (%)
  OR for rilzabrutinib vs. placebo, UAS7 reduction of 10 points or more: 1.096
  RRD (%) for rilzabrutinib vs. placebo, UAS7 reduction of 10 points or more: 2.2 %
  Responder, UAS7 reduction from baseline of 10 points or more: 15 (40.5) n (%)
[21]
  Non-responder, UAS7 reduction from baseline of 10 points or more: 16 (39.0) n (%)
  OR for rilzabrutinib vs. placebo, UAS7 reduction of 10 points or more: 2.334
  RRD (%) for rilzabrutinib vs. placebo, UAS7 reduction of 10 points or more: 18.7 %
  Responder, UAS7 reduction from baseline of 10 points or more: 25 (61.0) n (%)
[22]
  UAS7 Change from baseline Median: −15.00
  UAS7 Mean (SD): 13.54 (9.34)
  UAS7 Median: 14.00
  UAS7 Percent change from baseline Mean (SD): −54.22 (30.59) %
  UAS7 Percent change from baseline Median: −52.50%
[23]
  UAS7 Change from baseline Mean (SD): −20.86 (14.89)
  UAS7 Change from baseline Median: −16.00
  UAS7 Mean (SD): 12.17 (10.21)
  UAS7 Percent change from baseline Mean (SD): −58.95 (28.44) %
  UAS7 Percent change from baseline Median: −51.29%
[24]
  Non-responder, UAS7 reduction from baseline of 10 points or more: 13 (37.1) n (%)
  OR for rilzabrutinib vs. placebo, UAS7 reduction of 10 points or more: 2.765
  RRD (%) for rilzabrutinib vs. placebo, UAS7 reduction of 10 points or more: 22.3 %
  Responder, UAS7 reduction from baseline of 10 points or more: 22 (62.9) n (%)
[25]
  Non-responder, UAS7 reduction from baseline of 10 points or more: 17 (41.5) n (%)
  OR for rilzabrutinib vs. placebo, UAS7 reduction of 10 points or more: 1.985
  RRD (%) for rilzabrutinib vs. placebo, UAS7 reduction of 10 points or more: 17.5 %
  Responder, UAS7 reduction from baseline of 10 points or more: 24 (58.5) n (%)
[26]
  UAS7 Change from baseline Mean (SD): −15.64 (11.76)
  UAS7 Change from baseline Median: −16.00
  UAS7 Mean (SD): 13.98 (13.06)
  UAS7 Median: 10.00
  UAS7 Percent change from baseline Mean (SD): −54.37 (38.23) %
  UAS7 Percent change from baseline Median: −64.29%
[27]
  UAS7 Change from baseline Mean (SD): −21.00 (19.13)
  UAS7 Change from baseline Median: −26.00
  UAS7 Mean (SD): 11.00 (15.67)
  UAS7 Median: 1.00
  UAS7 Percent change from baseline Mean (SD): −61.16 (51.62) %
  UAS7 Percent change from baseline Median: −96.30%
[28]
  Non-responder, UAS7 reduction from baseline of 10 points or more: 14 (40.0) n (%)
  OR for rilzabrutinib vs. placebo, UAS7 reduction of 10 points or more: 2.484
